Source: ChEMBL document CHEMBL5620432 (Eur J Med Chem, 2023)
Activity calls are given as the source filed them. The calls are words filed in the database; no cut-off is given here.

Assays:
[1] = system: Mus musculus; test: Induction of motivational effect in C57BL/6 mouse assessed as increase in number of jumps at 2.5 microg/kg, sc administered daily twice for 5 days by CPP analysis; format: functional, organism-based; details: dose 2.5 µg/kg, time 5.0 day
[2] = target: T1, Nociceptin receptor (Homo sapiens, UniProt P41146); test: Agonist activity at human NOP receptor expressed in CHO-K1 cells co-expressed with Galphai by cAMP assay relative to control; format: functional, cell-based
T1 sequence (P41146 whole entry): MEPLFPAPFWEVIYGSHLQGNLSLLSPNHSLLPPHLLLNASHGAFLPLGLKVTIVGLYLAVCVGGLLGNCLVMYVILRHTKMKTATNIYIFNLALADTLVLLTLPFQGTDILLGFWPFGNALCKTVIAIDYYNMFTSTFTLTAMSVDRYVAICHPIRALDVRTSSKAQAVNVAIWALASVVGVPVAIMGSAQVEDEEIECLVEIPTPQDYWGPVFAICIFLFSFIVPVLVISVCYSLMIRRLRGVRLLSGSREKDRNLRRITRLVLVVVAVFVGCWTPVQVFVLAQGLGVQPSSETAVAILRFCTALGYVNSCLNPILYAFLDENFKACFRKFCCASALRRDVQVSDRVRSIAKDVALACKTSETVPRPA

[3] = target: T2, Mu-type opioid receptor (Homo sapiens, UniProt P35372); test: Agonist activity at human MOR expressed in CHO-K1 cells co-expressed with Galphai by cAMP assay; format: functional, cell-based
T2 sequence (P35372 whole entry): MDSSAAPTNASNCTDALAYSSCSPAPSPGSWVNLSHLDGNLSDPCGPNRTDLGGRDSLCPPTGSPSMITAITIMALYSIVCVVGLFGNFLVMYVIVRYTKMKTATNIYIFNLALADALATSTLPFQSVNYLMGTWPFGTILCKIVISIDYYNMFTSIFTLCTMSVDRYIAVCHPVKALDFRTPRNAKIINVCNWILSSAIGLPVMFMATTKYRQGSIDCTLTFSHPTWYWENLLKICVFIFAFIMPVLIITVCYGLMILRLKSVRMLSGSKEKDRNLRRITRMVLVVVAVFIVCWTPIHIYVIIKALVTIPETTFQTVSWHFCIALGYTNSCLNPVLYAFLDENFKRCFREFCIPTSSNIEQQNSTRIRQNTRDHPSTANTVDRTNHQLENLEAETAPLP

[4] = target: T2, Mu-type opioid receptor; test: Agonist activity at human MOR expressed in CHO-K1 cells co-expressed with Galphai by cAMP assay relative to control; format: functional, cell-based
[5] = system: Mus musculus; test: Antinociceptive activity in wild type C57BL/6 mouse assessed as maximum possible effect at 12 mg/kg measured upto 60 mins by tail-flick test; format: functional; details: 1 h
[6] = target: T1, Nociceptin receptor; test: Agonist activity at human NOP receptor expressed in CHO-K1 cells co-expressed with Galphai by cAMP assay; format: functional, cell-based
[7] = Drug concentration in mouse brain at 2 mg/kg,sc measured after 5 mins by ICP-MS analysis; format: ADME, organism-based; details: read-out: Ct
[8] = Drug concentration in mouse intestine at 2 mg/kg,sc measured after 5 mins by ICP-MS analysis; format: ADME, organism-based; details: read-out: Ct
[9] = Drug concentration in mouse intestine at 2 mg/kg,sc measured after 60 mins by ICP-MS analysis; format: ADME, organism-based; details: read-out: Ct
[10] = target: T1, Nociceptin receptor; test: Displacement of [3H]-Nociceptin from human NOP receptor expressed in CHO-K1 cell membrane assessed as inhibition constant; format: cell membranes
[11] = target: T2, Mu-type opioid receptor; test: Agonist activity at human MOR expressed in CHO-K1 cells assessed as beta arrestin-2 recruitment; format: functional, cell-based
[12] = system: Mus musculus; test: Antinociceptive activity in thermal stimulated wild type C57BL/6 mouse assessed as drug tolerance at 568 microg/kg, sc administered twice daily for 5 days and measured on day 1, 3, and 5 after 30 mins post drug treatment by tail flick test; format: functional, organism-based; details: dose 568.0 µg/kg, time 5.0 day
[13] = Drug concentration in mouse plasma at 2 mg/kg,sc measured after 60 mins by ICP-MS analysis; format: ADME, organism-based
[14] = target: T1, Nociceptin receptor; test: Agonist activity at human NOP receptor expressed in CHO-K1 cells assessed as beta arrestin-2 recruitment; format: functional, cell-based
[15] = target: T1, Nociceptin receptor; test: Agonist activity at human NOP receptor expressed in CHO-K1 cells assessed as decrease in intracellular cAMP level at 1 uM in presence of BAN ORL 24; format: functional, cell-based; details: filed as agonist
[16] = system: Mus musculus; test: Induction of motivational effect in C57BL/6 mouse assessed as increase in number of jumps at 284 microg/kg, sc administered daily twice for 5 days by CPP analysis; format: functional, organism-based; details: dose 284.0 µg/kg, time 5.0 day
[17] = Drug concentration in mouse plasma at 2 mg/kg,sc measured after 5 mins by ICP-MS analysis; format: ADME, organism-based
[18] = system: Mus musculus; test: Antinociceptive activity in thermal stimulated sc dosed hMOR/mMOR knockout C57BL/6 mouse measured upto 120 mins by tail flick test; format: functional; details: C57BL/6, 2 h
[19] = target: T2, Mu-type opioid receptor; test: Displacement of [3H]-Diprenorphine from human MOR expressed in CHO-K1 cell membrane assessed as inhibition constant; format: cell membranes
[20] = target: T2, Mu-type opioid receptor; test: Agonist activity at human MOR expressed in CHO-K1 cells assessed as decrease in intracellular cAMP level at 1 uM in presence of naltrexone; format: functional, cell-based; details: filed as agonist
[21] = system: Mus musculus; test: Antinociceptive activity in thermal stimulated hMOR/mMOR knockout C57BL/6 mouse at 402 microg/kg,sc measured after 30 to 60 mins by tail flick test; format: functional, organism-based; details: dose 402.0 µg/kg, time 30-60 min
[22] = system: Mus musculus; test: Antinociceptive activity in thermal stimulated wild type C57BL/6 mouse at 284 to 568 microg/kg, sc measured at 30 to 60 mins by tail flick test; format: functional, organism-based; details: dose 284-568 µg/kg, time 30-60 min
[23] = system: Mus musculus; test: Antinociceptive activity in thermal stimulated MOR-knockout C57BL/6 mouse assessed as delay in flick tail at 252.8 microg/kg, sc measured upto 120 mins by tail flick test; format: functional, organism-based; details: dose 252.8 µg/kg
[24] = system: Mus musculus; test: Antinociceptive activity in thermal stimulated hMOR/mMOR knockout C57BL/6 mouse assessed as drug tolerance at 402 microg/kg, sc administered twice daily for 5 days and measured on day 1, 3, and 5 after 30 mins post drug treatment by tail flick test; format: functional, organism-based; details: dose 402.0 µg/kg, time 5.0 day
[25] = system: Mus musculus; test: Antinociceptive activity in thermal stimulated sc dosed wild type C57BL/6 mouse measured upto 120 mins by tail flick test; format: functional; details: C57BL/6, 2 h
[26] = Drug concentration in mouse brain at 2 mg/kg,sc measured after 60 mins by ICP-MS analysis; format: ADME, organism-based; details: read-out: Ct
[27] = system: Mus musculus; test: Induction of motivational effect in C57BL/6 mouse assessed as increase in reward behaviour at 284 microg/kg, sc administered for 4 days and measured on day 6 by CPP analysis; format: functional, organism-based; details: dose 284.0 µg/kg, time 6.0 day

CN1CC[C@]23c4c5ccc(O)c4O[C@H]2[C@@H](O)C=C[C@H]3[C@H]1C5
Activity [1]: Active

CN(C)C(CNC(=O)Nc1cccc(Cl)c1)c1cccc(F)c1 (stereo unspecified)
Emax [2]: < 20%
EC50 [3]: 0.1 nM
Emax ([4]; filed as agonist): 72.5%

Cc1cccc(CCNC(=O)NCC(c2cccc(F)c2)N(C)C)c1 (stereo unspecified)
Emax ([2]; filed as agonist): 67%
Emax ([4]; filed as agonist): 89.7%
MPE [5]: 0%

CN(C)C(CNC(=O)NCCc1cccc(C(F)(F)F)c1)c1cccc(F)c1 (stereo unspecified)
Emax [2]: < 20%
EC50 [3]: 0.0186 nM
Emax ([4]; filed as agonist): 74.1%

CN(C)C(CNC(=O)NC1CCCC1)c1cccc(F)c1 (stereo unspecified)
Emax ([2]; filed as agonist): 67.1%
EC50 [6]: 2.6 nM
Emax [4]: < 20%

CN(C)C(CNC(=O)NCc1cccc(C(F)(F)F)c1)c1cccc(F)c1 (stereo unspecified)
Emax [2]: < 20%
EC50 [3]: 0.00066 nM
Emax ([4]; filed as agonist): 85.2%

CN(C)C(CNC(=O)NCCc1cccc(Cl)c1)c1cccc(F)c1 (stereo unspecified)
Emax ([2]; filed as agonist): 91.6%
Emax ([4]; filed as agonist): 89.9%
MPE [5]: 0%

CN(C)C(CNC(=O)Nc1ccc(Cl)c(Cl)c1)c1cccc(F)c1 (stereo unspecified)
Emax ([2]; filed as agonist): 74.1%
EC50 [6]: 37.2 nM
Emax ([4]; filed as agonist): 68.5%

CN(C)C(CNC(=O)NCCc1cccc(F)c1)c1cccc(F)c1 (stereo unspecified)
Emax ([2]; filed as agonist): 92.6%
EC50 [3]: 0.000374 nM
Emax ([4]; filed as agonist): 90.8%
MPE [5]: 0%

CN(C)C(CNC(=O)NCc1ccc(C(F)(F)F)cc1)c1cccc(F)c1 (stereo unspecified)
Emax ([2]; filed as agonist): 92.3%
EC50 [6]: 0.71 nM
EC50 [3]: 0.19 nM
Emax ([4]; filed as agonist): 93.3%
MPE [5]: 0%

CN(C)C(CNC(=O)NCc1cccc(Cl)c1)c1cccc(F)c1 (stereo unspecified)
concentration at 5 min [7]: 838 ng/g
Emax ([2]; filed as agonist): 91.6%
concentration at 5 min [8]: 1290 ng/g
concentration at 1 h [9]: 454 ng/g
Ki [10]: 0.2 nM
EC50 [11]: 3.99 nM
Activity [12]: inactive
concentration at 1 h [13]: 119 ng/mL
EC50 [14]: 0.2 nM
Activity [15]: Active
Activity [16]: inactive
concentration at 5 min [17]: 673 ng/mL
EC50 [6]: 0.000126 nM
ED50 [18]: 0.402 mg/kg
EC50 [3]: 0.000102 nM
Ki [19]: 0.4 nM
Activity [20]: Active
Activity [21]: Active
Activity [22]: Active
Emax ([4]; filed as agonist): 92.5%
Activity [23]: inactive
Activity [24]: inactive
MPE [5]: 100%
ED50 [25]: 0.284 mg/kg
concentration at 1 h [26]: 237 ng/g
Activity [27]: inactive

CN1CCc2ccccc2C1CNC(=O)c1ccc(Cl)c(Cl)c1 (stereo unspecified)
Emax ([2]; filed as agonist): 87%
EC50 [6]: 0.17 nM
EC50 [3]: 0.0234 nM
Emax ([4]; filed as agonist): 93.6%

CN(C)C(CNC(=O)NCc1cccc(F)c1)c1cccc(F)c1 (stereo unspecified)
Emax ([2]; filed as agonist): 89.8%
Emax ([4]; filed as agonist): 91.2%

CN(C)C(CNC(=O)NCCCc1ccccc1)c1cccc(F)c1 (stereo unspecified)
Emax ([2]; filed as agonist): 66.6%
EC50 [6]: 0.711 nM
EC50 [3]: 0.631 nM
Emax ([4]; filed as agonist): 80.2%

Cc1cccc(CNC(=O)NCC(c2cccc(F)c2)N(C)C)c1 (stereo unspecified)
Emax ([2]; filed as agonist): 67.1%
EC50 [6]: 2130 nM
EC50 [3]: 0.526 nM
Emax ([4]; filed as agonist): 91.4%

CN(C)C(CNC(=O)NCCc1ccc(C(F)(F)F)cc1)c1cccc(F)c1 (stereo unspecified)
Emax ([2]; filed as agonist): 57.5%
EC50 [6]: 0.06 nM
EC50 [3]: 0.000501 nM
Emax ([4]; filed as agonist): 88.5%
MPE [5]: 39.05%

CN(C)C(CNC(=O)NCc1ccc(OC(F)(F)F)cc1)c1cccc(F)c1 (stereo unspecified)
Emax ([2]; filed as agonist): 61.9%
EC50 [6]: 2420 nM
EC50 [3]: 1.52 nM
Emax ([4]; filed as agonist): 76.9%

CN(C)C(CNC(=O)NCc1ccc(Cl)cc1)c1cccc(F)c1 (stereo unspecified)
Emax [2]: < 20%
EC50 [3]: 0.00033 nM
Emax ([4]; filed as agonist): 84.7%

CN(C)C(CNC(=O)NCCc1ccc(F)cc1)c1cccc(F)c1 (stereo unspecified)
Emax ([2]; filed as agonist): 58.4%
EC50 [6]: 0.000126 nM
Emax ([4]; filed as agonist): 81.1%

CN(C)C(CNC(=O)NCc1ccc(F)cc1)c1cccc(F)c1 (stereo unspecified)
Emax ([2]; filed as agonist): 93.2%
Emax ([4]; filed as agonist): 96.1%
MPE [5]: 100%

CN(C)C(CNC(=O)NCc1cccc(OC(F)(F)F)c1)c1cccc(F)c1 (stereo unspecified)
Emax ([2]; filed as agonist): 80.4%
EC50 [6]: 0.02 nM
EC50 [3]: 0.0164 nM
Emax ([4]; filed as agonist): 77.9%

CN(C)C(CNC(=O)NCCc1ccccc1)c1cccc(F)c1 (stereo unspecified)
Emax ([2]; filed as agonist): 72%
EC50 [6]: 2.96 nM
EC50 [3]: 21 nM
Emax ([4]; filed as agonist): 86.6%

Cc1ccc(CCNC(=O)NCC(c2cccc(F)c2)N(C)C)cc1 (stereo unspecified)
Emax ([2]; filed as agonist): 76.9%
EC50 [6]: 209 nM
EC50 [3]: 15.1 nM
Emax ([4]; filed as agonist): 80.7%

Cc1ccc(CNC(=O)NCC(c2cccc(F)c2)N(C)C)cc1 (stereo unspecified)
Emax [2]: < 20%
Emax ([4]; filed as agonist): 88%

CN(C)C(CNC(=O)NCCc1ccc(Cl)cc1)c1cccc(F)c1 (stereo unspecified)
Emax ([2]; filed as agonist): 53.9%
EC50 [6]: 0.61 nM
Emax ([4]; filed as agonist): 72.4%
